According to patent US20250162989A1, “USP30 INHIBITORS AND USES THEREOF” (Vincere Biosciences, Inc., priority 2021, published 2025):
Like-named read-outs stand apart in the source and are kept apart here.

How the values were obtained:
USP30 = USP30 (Homo sapiens (Human), UniProt Q70CQ3); assay: Dundee MALDI-TOF mass spectrometry assay (K48-linked diubiquitin cleavage); type: biochemical; conditions: USP30 25 ng/μl, K48-linked diubiquitin 5.6 μM
Description: USP30 was diluted in a buffer containing 40 mM Tris, 0.01% BSA, 1 mM DTT and K48 in 40 mM Tris, 0.01% BSA.
The compounds were pre-incubated with the USP30 for 5 mins at room temp before the K48 dimer addition. The assay mixture was then incubated for 45 mins at room temp. The assay was stopped by the addition of TFA to a final concentration of 2% (v/v).
Acidified samples of the DUB assays were mixed with 0.5 mM 15N-ubiquitin and then with one part of 2% (v/v) TFA and one part of 2.5 DHAP matrix solution (7.6 mg of 2.5 DHAP in […] ethanol and […] of an aqueous 12 mg ml 1 diammonium hydrogen citrate).

[1] = biological target: recombinant USP30 (amino acids 57-517 of the human sequence) (Homo sapiens (Human), UniProt Q70CQ3); assay: In vitro USP30 biochemical assay (Ubiquitin-Rhodamine substrate); conditions: fluorescence
Description: In vitro biochemical assay to establish the potency of compounds for USP30 inhibition: a 384-well plate assay using a fluorophore tagged substrate of USP30 was used for in vitro screening of compounds. Each compound was tested at
10 different concentrations (0.5 to 10,000 nM) in duplicate wells. […] Data were analyzed using Graph Pad Prism software with a four-parameter (floating slope) fit to log concentration data to determine IC50s.

[2] = 1.5 nM recombinant USP30, 25 nM Ubiquitin-Rhodamine
[3] = […] recombinant USP30, 25 nM Ubiquitin-Rhodamine

Sequence of USP30 (Q70CQ3 whole entry): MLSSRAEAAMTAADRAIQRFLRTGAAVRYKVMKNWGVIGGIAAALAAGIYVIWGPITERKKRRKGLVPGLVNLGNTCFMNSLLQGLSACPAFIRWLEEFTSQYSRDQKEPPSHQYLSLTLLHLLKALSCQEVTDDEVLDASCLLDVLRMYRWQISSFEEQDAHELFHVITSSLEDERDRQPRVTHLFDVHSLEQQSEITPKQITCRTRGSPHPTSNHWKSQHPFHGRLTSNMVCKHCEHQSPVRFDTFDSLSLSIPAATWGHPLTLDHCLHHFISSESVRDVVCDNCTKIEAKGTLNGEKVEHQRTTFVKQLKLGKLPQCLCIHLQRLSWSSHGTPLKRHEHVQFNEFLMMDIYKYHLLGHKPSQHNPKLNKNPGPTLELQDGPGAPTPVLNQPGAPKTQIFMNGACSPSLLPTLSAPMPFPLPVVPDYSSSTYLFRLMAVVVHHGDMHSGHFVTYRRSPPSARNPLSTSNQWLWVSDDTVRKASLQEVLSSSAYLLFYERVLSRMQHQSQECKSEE
Sequence of recombinant USP30 (amino acids 57-517 of the human sequence) (Q70CQ3 57-517): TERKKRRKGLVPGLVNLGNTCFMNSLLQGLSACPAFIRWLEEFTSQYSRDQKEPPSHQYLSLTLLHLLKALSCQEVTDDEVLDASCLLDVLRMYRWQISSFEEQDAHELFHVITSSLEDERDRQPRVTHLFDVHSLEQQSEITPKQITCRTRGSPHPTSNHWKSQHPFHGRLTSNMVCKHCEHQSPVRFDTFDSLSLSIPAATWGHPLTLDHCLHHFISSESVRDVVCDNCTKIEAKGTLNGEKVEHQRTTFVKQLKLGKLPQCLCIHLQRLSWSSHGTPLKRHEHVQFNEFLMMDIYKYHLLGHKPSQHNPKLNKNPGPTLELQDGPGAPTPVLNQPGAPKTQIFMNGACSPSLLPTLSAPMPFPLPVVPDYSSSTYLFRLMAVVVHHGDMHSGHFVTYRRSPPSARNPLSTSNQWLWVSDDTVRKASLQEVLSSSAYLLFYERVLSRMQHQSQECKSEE

COc1cc(NC(=O)[C@H](CC2CCNCC2)NC(=O)c2ccc(F)cc2)ccc1S(=O)(=O)NC(C)(C)CO [Compound I-159]
IC50 (USP30; read-out: USP30 IC50 μM (avg)): 0.05 to 1 µM | IC50 [1, 2]: 0.05 to 1 µM

CC(C)(C)NS(=O)(=O)c1ccc(NC(=O)[C@H](Cc2ccccc2)NC(=O)c2ccc(F)cc2)cc1C(F)(F)F [Compound I-70, (S)—N-(1-(4-(N-tert-butylsulfamoyl)-3-(trifluoromethyl)phenylamino)-1-oxo-3-phenylpropan-2-yl)-4-fluorobenzamide]
IC50 (USP30; read-out: IC50): < 0.05 µM | IC50 [1, 3]: < 0.05 µM

CC(C)(C)NS(=O)(=O)c1ccc(NC(=O)[C@H](CC2CCN(C#N)CC2)NC(=O)c2ccc(F)cc2)cc1 [Compound I-165]
IC50 (USP30; read-out: USP30 IC50 μM (avg)): < 0.05 µM | IC50 [1, 3]: < 0.05 µM

N#CN1CC[C@@H](NC(=O)[C@H](Cc2ccccc2)NC(=O)c2ccc(F)cc2)C1 [Compound I-125]
IC50 (USP30; read-out: USP30 IC50 μM (avg)): 0.05 to 1 µM | IC50 [1, 2]: 0.05 to 1 µM

CC(C)(C)NS(=O)(=O)c1ccc(NC(=O)[C@H](Cc2ccccc2)NC(=O)c2ccon2)cc1 [Compound I-167]
IC50 (USP30; read-out: USP30 IC50 μM (avg)): 0.05 to 1 µM | IC50 [1, 2]: 0.05 to 1 µM

CC(C)(C)NS(=O)(=O)c1ccc(NC(=O)[C@H](CC2CCNCC2)NC(=O)c2ccc(F)nc2)cc1 [Compound I-186]
IC50 (USP30; read-out: USP30 IC50 μM (avg)): 0.05 to 1 µM | IC50 [1, 2]: 0.05 to 1 µM

Cn1cncc1CNS(=O)(=O)c1ccc(NC(=O)[C@H](Cc2ccccc2)NC(=O)c2ccc(F)cc2)cc1 [Compound I-227]
IC50 (USP30; read-out: USP30 IC50 μM (avg)): 0.05 to 1 µM | IC50 [1, 2]: 0.05 to 1 µM

COc1cc(NC(=O)[C@@H]2C[C@@H](c3ccccc3)CN2C(=O)c2ccc(F)cc2)ccc1S(=O)(=O)NC(C)(C)CO [Compound I-272]
IC50 (USP30; read-out: USP30 IC50 μM (avg)): 0.05 to 1 µM | IC50 [1, 2]: 0.05 to 1 µM

CC(C)(C)NS(=O)(=O)c1ccc(NC(=O)[C@H](Cc2ccccc2)NC(=O)c2nccs2)cc1 [Compound I-168]
IC50 (USP30; read-out: USP30 IC50 μM (avg)): < 0.05 µM | IC50 [1, 2]: 0.05 to 1 µM

CC(C)(C)NS(=O)(=O)c1ccc(NC(=O)[C@H](CC2CCN(CCC(F)(F)F)CC2)NC(=O)c2ccc(F)cc2)cn1 [Compound I-208]
IC50 (USP30; read-out: USP30 IC50 μM (avg)): 0.05 to 1 µM | IC50 [1, 2]: 0.05 to 1 µM

O=C(N[C@@H](CC1CCNCC1)C(=O)Nc1ccc(S(=O)(=O)NC2CCOCC2)cc1)c1ccc(F)cc1 [Compound I-157]
IC50 (USP30; read-out: USP30 IC50 μM (avg)): 0.05 to 1 µM | IC50 [1, 2]: 0.05 to 1 µM

O=C(N[C@@H](Cc1ccccc1)C(=O)Nc1ccc(S(=O)(=O)NC2COC2)c(C(F)(F)F)c1)c1ccc(F)cc1 [Compound I-68]
IC50 (USP30; read-out: IC50): < 0.05 µM | IC50 [1, 2]: 0.05 to 1 µM

COc1cc(NC(=O)[C@H](Cc2ccccc2)NC(=O)c2ccc(F)cc2)ccc1S(=O)(=O)NC1(CO)CC1 [Compound I-141]
IC50 (USP30; read-out: USP30 IC50 μM (avg)): < 0.05 µM | IC50 [1, 2]: 0.05 to 1 µM

CC(C)(NS(=O)(=O)c1ccc(NC(=O)[C@H](Cc2ccccc2)NC(=O)c2ccc(F)cn2)cc1)C(F)(F)F [Compound I-201]
IC50 (USP30; read-out: USP30 IC50 μM (avg)): < 0.05 µM | IC50 [1, 2]: 0.05 to 1 µM

CC(C)C(=O)N1CCC(C[C@H](NC(=O)c2ccc(F)cc2)C(=O)Nc2ccc(S(=O)(=O)NC(C)(C)C)cc2)CC1 [Compound I-161]
IC50 (USP30; read-out: USP30 IC50 μM (avg)): < 0.05 µM | IC50 [1, 3]: < 0.05 µM

CC(C)N1CCC(C[C@H](NC(=O)c2ccc(F)cc2)C(=O)Nc2ccc(S(=O)(=O)NC(C)(C)C)cc2)CC1 [Compound I-117]
IC50 (USP30; read-out: USP30 IC50 μM (avg)): < 0.05 µM

CC(C)(CO)NS(=O)(=O)c1ccc(NC(=O)[C@@H](NC(=O)c2ccc(F)cc2)C2CC2)cc1 [Compound I-52]
IC50 [1, 2]: 1 to 10 µM

N#CN1CC(NC(=O)[C@H](Cc2ccccc2)NC(=O)c2ccc(F)cc2)C1 [Compound I-241]
IC50 [1, 2]: 0.05 to 1 µM

CC(=O)N1CCC(NC(=O)[C@H](Cc2ccccc2)NC(=O)c2ccc(F)cc2)CC1 [Compound I-114]
IC50 [1, 3]: > 10 µM

CC(C)(C)NS(=O)(=O)c1ccc(NC(=O)[C@H](Cc2ccccc2)NC(=O)c2c[nH]cn2)cc1 [Compound I-176]
IC50 [1, 3]: > 10 µM

CO[C@H]1C[C@@H](C(=O)Nc2ccc(S(=O)(=O)NC(C)(C)CO)cc2)N(C(=O)c2ccc(F)cc2)C1 [Compound I-291]
IC50 [1, 3]: > 10 µM

COCCC(C)(C)NS(=O)(=O)c1ccc(NC(=O)[C@@H](CC(C)C)NC(=O)c2ccc(F)cc2)cc1 [Compound I-19]
IC50 [1, 2]: 1 to 10 µM

CN1CCC(C[C@H](NC(=O)N2CCN(C)CC2)C(=O)Nc2ccc(S(=O)(=O)NC(C)(C)C)cc2)CC1 [Compound I-218]
IC50 [1, 3]: > 10 µM

CN1CCC(C[C@H](NC(=O)c2ccc(F)cc2)C(=O)Nc2ccc(S(=O)(=O)NCc3ccnn3C)cc2)CC1 [Compound I-231]
IC50 [1, 2]: 0.05 to 1 µM

O=C(N[C@@H](CCO)C(=O)Nc1ccc(S(=O)(=O)NC2COC2)cc1)c1ccc(F)cc1 [Compound I-31]
IC50 [1, 2]: 1 to 10 µM

COc1cc(NC(=O)[C@@H]2C[C@@H](C3CCCCC3)CN2C(=O)c2ccc(F)cc2)cnc1S(=O)(=O)NC(C)(C)CO [Compound I-256]
IC50 [1, 3]: > 10 µM

COc1cc(NC(=O)[C@H](CC2CCN(C)CC2)NC(=O)c2ccc(F)cc2)ccc1S(=O)(=O)NC1COC1 [Compound I-96]
IC50 [1, 2]: 0.05 to 1 µM

COc1cc(NC(=O)[C@H](CC2CCOCC2)NC(=O)c2ccc(F)cc2)ccc1S(=O)(=O)NC1CCN(C)CC1 [Compound I-88]
IC50 [1, 2]: 0.05 to 1 µM

CC(C)(CO)NS(=O)(=O)c1ccc(NC(=O)[C@@H]2C[C@@H](c3ccccc3)CN2C(=O)c2ccc(F)cc2)cc1 [Compound I-262]
IC50 [1, 2]: 1 to 10 µM

CC(C)(NS(=O)(=O)c1ccc(NC(=O)[C@H](Cc2ccccn2)NC(=O)c2ccc(F)cc2)cc1)C(F)(F)F [Compound I-212]
IC50 [1, 2]: 0.05 to 1 µM

CN1CCC(C[C@H](NC(=O)c2ccc(F)cc2)[C@@H](O)CNc2ccc(S(=O)(=O)NC(C)(C)C)cc2)CC1 [Compound I-234]
IC50 [1, 2]: 1 to 10 µM

O=C(N[C@@H](Cc1ccccc1)C(=O)Nc1ccc(S(=O)(=O)NCc2cnccn2)cc1)c1ccc(F)cc1 [Compound I-223]
IC50 [1, 2]: 0.05 to 1 µM

COc1cc(NC(=O)[C@@H]2C[C@@H](C3CCCCC3)CN2C(=O)c2ccc(F)cc2)ccc1S(=O)(=O)NC(C)(C)CO [Compound I-259]
IC50 [1, 2]: 0.05 to 1 µM

O=C(N[C@@H](Cc1ccccc1)C(=O)N[C@@H]1CCNC1)c1ccc(F)cc1 [Compound I-146]
IC50 [1, 3]: > 10 µM

COc1cc(NC(=O)[C@H](CC2CCN(C)CC2)NC(=O)c2ccc(F)cc2)cnc1S(=O)(=O)NC(C)(C)C [Compound I-80]
IC50 [1, 2]: 0.05 to 1 µM

O=C(NC(CC1CCNCC1)C(=O)Nc1ccc(S(=O)(=O)NC2COC2)cc1)c1ccc(F)cc1 (centres unmarked) [Compound I-120]
IC50 [1, 2]: 0.05 to 1 µM

COCC[C@H](NC(=O)c1ccc(F)cc1)C(=O)Nc1ccc(S(=O)(=O)NC(C)(C)CO)cc1 [Compound I-26]
IC50 [1, 2]: 0.05 to 1 µM

CC(C)(C)NS(=O)(=O)c1ccc(NC(=O)[C@H](Cc2ccccc2)NC(=O)c2cc[nH]n2)cc1 [Compound I-178]
IC50 [1, 2]: 1 to 10 µM

CC(C)(C)NS(=O)(=O)c1ccc(NC(=O)[C@H](Cc2ccccc2)NC(=O)c2ccc3nn[nH]c3c2)cc1 [Compound I-189]
IC50 [1, 2]: 0.05 to 1 µM

CC(=O)O[C@@H]1C[C@@H](C(=O)Nc2ccc(S(=O)(=O)N[C@@H]3CCOC3)cc2)N(C(=O)c2ccc(F)cc2)C1 [Compound I-286]
IC50 [1, 2]: 1 to 10 µM

COc1cc(NC(=O)[C@@H]2C[C@@H](C3CCCCC3)CN2C(=O)c2ccc(F)cc2)cnc1S(=O)(=O)NC(C)(C)C [Compound I-255]
IC50 [1, 2]: 1 to 10 µM

COc1cc(NC(=O)[C@H](Cc2ccccc2)NC(=O)c2ccc(F)cc2)c(Cl)cc1S(=O)(=O)NC1(CO)CC1 [Compound I-139]
IC50 [1, 2]: 1 to 10 µM

CN(C)CC[C@H](NC(=O)c1ccc(F)cc1)C(=O)Nc1ccc(S(=O)(=O)NC(C)(C)C)cc1 [Compound I-240]
IC50 [1, 2]: 0.05 to 1 µM

CC(C)(CN1CCOCC1)NS(=O)(=O)c1ccc(NC(=O)[C@@H](NC(=O)c2ccc(F)cc2)C2CC2)cc1 [Compound I-53]
IC50 [1, 2]: 1 to 10 µM

COC[C@H](NC(=O)c1ccc(F)cc1)C(=O)Nc1ccc(S(=O)(=O)NC(C)(C)CO)cc1 [Compound I-32]
IC50 [1, 2]: 1 to 10 µM

CC(C)(C)NS(=O)(=O)c1cccc2c(NC(=O)[C@H](Cc3ccccc3)NC(=O)C3CCNCC3)cccc12 [Compound I-187]
IC50 [1, 3]: > 10 µM

CC1(NC(=O)[C@H](Cc2ccccc2)NC(=O)c2ccc(F)cc2)CN(C#N)C1 [Compound I-250]
IC50 [1, 3]: < 0.05 µM

CC(C)(C)NS(=O)(=O)c1ccc(NC(=O)[C@@H]2C[C@@H](O)CN2C(=O)c2ccc(F)cc2)cc1 [Compound I-264]
IC50 [1, 3]: > 10 µM

O=C(N[C@@H](Cc1ccccc1)C(=O)Nc1ccc(S(=O)(=O)NCc2cnc[nH]2)cc1)c1ccc(F)cc1 [Compound I-239]
IC50 [1, 2]: 0.05 to 1 µM

CC(C)(C)NS(=O)(=O)c1ccc(NC(=O)[C@@H](NC(=O)c2ccc(F)cc2)C(C)(C)C)cc1 [Compound I-77]
IC50 [1, 2]: 1 to 10 µM

CN1CCC(C[C@H](NC(=O)c2ccc(F)nc2)C(=O)Nc2ccc(S(=O)(=O)NC(C)(C)C)cc2)CC1 [Compound I-183]
IC50 [1, 2]: 0.05 to 1 µM

CC(C)(CF)NS(=O)(=O)c1ccc(NC(=O)[C@H](Cc2ccccn2)NC(=O)c2ccc(F)cc2)cc1 [Compound I-213]
IC50 [1, 2]: 0.05 to 1 µM

CN1CCN(C(=O)N[C@@H](Cc2ccccc2)C(=O)Nc2cccc3c(S(=O)(=O)NC(C)(C)C)cccc23)CC1 [Compound I-198]
IC50 [1, 3]: > 10 µM

CN1CCC(C[C@H](NC(=O)c2ccc(F)cc2)C(=O)Nc2ccc(S(=O)(=O)NC(C)(C)CF)cc2)CC1 [Compound I-127]
IC50 [1, 2]: 0.05 to 1 µM

CC(C)(C)NS(=O)(=O)c1ccc(NC(=O)[C@H](Cc2ccccc2)NC(=O)c2cc[nH]c2)cc1 [Compound I-181]
IC50 [1, 3]: > 10 µM

CC(C)(C)NS(=O)(=O)c1ccc(NC(=O)[C@@H]2C[C@H](c3ccccc3)CN2C(=O)c2ccc(F)cc2)cc1 [Compound I-283]
IC50 [1, 2]: 0.05 to 1 µM
